From patent US7794712B2, “Production of mutant strain of Aspergillus fumigatus, method of assay for inhibiting siderophore biosynthesis and diagnostic method for detecting likely Aspergillus fumigatus infection” (priority 2004, dated 2010)
“And” between values parts separate entries of the source, which are not always exact repeats. Equal entries are not always repeated. Non-standard residues stand in square brackets, D forms with d. Residues, ends and D or L forms follow the SMILES beside them. ξ: configuration not given here. Orn(N5-OH,N5-Ac) = CC(=O)N(O)CCC[C@H](N)C(=O)O; ξOrn(N(OH)Ac) = CC(=O)N(O)CCCC(N)C(=O)O

What was measured:
[1] = tested on: A. fumigatus ATCC 13073; test: Growth of A. fumigatus in MEM made iron limiting with 2,2′-dipyridyl; type: cell-based, Aspergillus fumigatus; conditions: MEM (5 ml) with 250 μM 2,2′-dipyridyl; holo-/apotransferrin 25 μM, FeCl3 50 μM
From the text: The inventors have shown that holotransferrin but not apotransferrin supports the growth of A. fumigatus in iron-depleted medium. MEM was made iron limiting by the addition of the iron-chelator 2,2′-dipyridyl.

[2] = tested on: A. fumigatus wild type (ATCC 13073); test: Growth (dry weight) in supplemented GA medium, parental / wild type strain; type: cell-based, Aspergillus fumigatus
Method: (§1) In this example the growth of various strains of A. fumigatus was monitored as follows. In a first experiment, A. fumigatus was inoculated into 5 ml volumes of YG medium or 5 ml of modified Grimm-Allen (GA) medium (1 g/L KHSO4, 3 g/L K2HPO4, 3 g/L (NH4)SO4, 20 g/L sucrose, 1 g/L citric acid, 2 mg/L thiamine, 20 μg/L CuSO4, 1 mg/L MnSO4, 5.5 mg/L ZnSO4, 810 mg/L MgSO4, pH 6.9) in 25 ml acid-washed flasks at a concentration of […]. GA medium was supplemented with […] FeCl3 where described. Human serum (male) was obtained from Sigma, stored frozen until use and added to media at a concentration of 10%. DesferriTAF and desferriferricrocin were purified from A. fumigatus cultures as described above and treated with 8-hydroxyquinoline to remove all bound iron. Siderophore solutions were filter-sterilized prior to addition to media.
(§2) In a second experiment, A. fumigatus was innoculated into 1 ml volumes of YM medium or 1 ml of the modified GA medium described above.
(§3) Alternatively, dry weights were measured by filtering the contents of each tube through pre-weighed, pre-dried Whatman #1 filters and rinsing thoroughly with distilled water. Filters were oven-dried and re-weighed.

[3] = tested on: A. fumigatus ΔsidA; test: Growth (dry weight) in supplemented GA medium, ΔsidA strain; type: cell-based, Aspergillus fumigatus; conditions: for Restoration of growth of ΔsidA in the presence of human serum: 50 μM siderophore
Method: as §1, §2, §3

[4] = tested on: A. fumigatus ΔsidA^R; test: Growth (dry weight) in supplemented GA medium, rescued strain ΔsidA^R; type: cell-based, Aspergillus fumigatus
Method: as §1, §2, §3

[5] = molecular target: human holotransferrin (Homo sapiens, UniProt P02787); type: biochemical; conditions: for Concentration at which complete absence of holotransferrin was observed / Concentration able to remove some iron from holotransferrin: holotransferrin 25 μM, 16 h, 37° C., pH 7.4; for Affinity of iron removal from holotransferrin: compared with ferrichrome
Method: Purified desferri-siderophores and commercially available ferrichrome were serially diluted to final concentrations of 2.5 mM, 250 μM, 25 μM, 2.5 μM and 250 nM (lanes 1-5, respectively). Siderophores were incubated with 12.5 μM human holo-Tf at 37 degrees for 16 hours. Iron saturation of transferrin was assessed by urea-PAGE (13).
Holotransferrin also was incubated with commercially available desferriferrichrome for comparison. The iron saturation of transferrin was monitored by urea-PAGE. Desferritriacetylfusarinine C, desferriferricrocin, and desferriferrichrome were diluted to concentrations ranging from 5 mM to 5 μM and incubated with holotransferrin (25 μM) in 50 mM Tris-150 mM NaCl-20 mM NaHCO3 (pH 7.4) buffer for 16 h at 37° C. The extent of iron saturation of transferrin at the end of the incubation period was determined by urea-PAGE.

[6] = tested on: A. fumigatus 13073; test: Siderophore secretion inhibitor assay (A440 after FeCl3 addition); type: cell-based, Aspergillus fumigatus; conditions: 3 days
From the text: In this example 96-well sterile polystyrene filter plates as described above with white Duropore membranes at the base of the plate (Millipore) were used. The plates include a thick plastic layer under the wells, which has a one-way valve function that directs fluid into a receiving 96-well plate when the filter plate is subjected to a vacuum manifold or a centrifugal force. This layer can be peeled off if the membranes are to be sampled (punched) later.
Cultures were set up in the filter plates, with controls and inhibitors to be tested. After inclubation, culture fluid was pulled into a 96-well receiver plate, using the Beckman centrifuge and a JS 5.3 rotor designed to take 96-well plates. FeCl3 was added to the receiver plates, and A430 (general siderophores) or A440 (max for TAF) was read. Growth was scored in the plate by reading A600.
To test this method, different antibiotics were used to show inhibition of siderophore production by A. fumigatus 13073, as no inhibitors for the SidA gene product are currently known. Suitable ranges of concentrations of amphotericin B (fungizone), hygromycin, and nystatin were calculated based on the literature. Spores were harvested from A. fumigatus 13073 into PBS Tween, then washed once with PBS and counted. They were then diluted into Neilands' medium (without citrate) to give solutions of 2×10^5 and 2×10^6/ml. 100 μl of 2× spores and 100 μl of 2× antibiotics to yield a volume of 200 μl of Neilands' medium in each well, with the desired final concentrations of spores, 10^5 or 10^6/ml.
Antibiotics were prepared as follows. Amphotericin B came as a liquid solution, 250 µg/ml. […] Therefore 0, 0.125, 0.25, 0.5, 1 and […] final concentration was used. Nystatin was stored it in ˜1 mg dry aliquots at −20 C, and was prepared at a concentration of 2 mg/ml in DMSO for dilution into Neilands' media. According to reported information, nystatin should be effective at 1.5 to 6.5 µg/ml; therefore, 0, 0.5, 1, 5, 10 and 50 µg/ml were used as the final concentrations. Hygromycin gold stock was in solution at 100 mg/ml, and 0, 25, 50, 100, 150 and 200 µg/ml were used as the final concentrations in Neilands' medium. Plates were incubated for 3 days at 37° C. with shaking.
To test for siderophores, 20 μL of a solution of 2 mM FeCl3 in 10 mM HCl was added to each well in the receiver plates and the A440 was recorded on a plate reader. […] An increase in A440 indicates a more intense orange-red colour that develops in the presence of ferrated siderophores. […] Because 3-day incubation produces conidia, shorter incubation periods may be preferable.
Three identical plates were set up: one filter plate and two sterile clear 96-well plates. The clear plates were used to score growth, and the filter plate was used to detect siderophores. Columns 1-6 contained Neilands' medium without citrate and amphotericin 0-2 at g/ml. Columns 7-12 contained Neilands' medium with citrate and amphotericin at […]. The rows were set up with A. fumigatus as described above, but two sets of each were set up to be in the two plates. The spores from the previous experiment were stored at −20° C. in PBS, in siliconized tubes, at 2×10^8 conidia/ml, to facilitate these experiments. Plates were incubated for 48 hours at 37° C. without shaking.
The filter plate was centrifuged at 1000×g for 10 minutes and the liquids caught in a clear non-sterile plate, to which FeCl3 was added. The plate was allowed to sit and develop orange colour, and was then read at 440 nm. The clear plates (one without Fe and one with Fe added to growth medium from the beginning) were read at 600 nm (A600). In the result, iron enhanced conidiation. Some wells of the filter plate were lightly conidiated and would not drain. These were hand pipetted.

[7] = 1 ml GA, 4 days 37° C., 5 μM FeCl3
[8] = 1 ml GA, 96 hours, FeCl3 5 μM or ferrated TAF 10 μM
[9] = 5 ml GA medium, 4 days 37° C., 5 μM FeCl3 or 10 μM TAF
[10] = 1 ml GA + 5 μM FeCl3 + 10% serum, 50 μM desferri-TAF or desferri-ferricrocin, 4 days
[11] = GA + FeCl3 + 10% human serum, desferrisiderophore 50 μM

Sequence of human holotransferrin (P02787 20-698): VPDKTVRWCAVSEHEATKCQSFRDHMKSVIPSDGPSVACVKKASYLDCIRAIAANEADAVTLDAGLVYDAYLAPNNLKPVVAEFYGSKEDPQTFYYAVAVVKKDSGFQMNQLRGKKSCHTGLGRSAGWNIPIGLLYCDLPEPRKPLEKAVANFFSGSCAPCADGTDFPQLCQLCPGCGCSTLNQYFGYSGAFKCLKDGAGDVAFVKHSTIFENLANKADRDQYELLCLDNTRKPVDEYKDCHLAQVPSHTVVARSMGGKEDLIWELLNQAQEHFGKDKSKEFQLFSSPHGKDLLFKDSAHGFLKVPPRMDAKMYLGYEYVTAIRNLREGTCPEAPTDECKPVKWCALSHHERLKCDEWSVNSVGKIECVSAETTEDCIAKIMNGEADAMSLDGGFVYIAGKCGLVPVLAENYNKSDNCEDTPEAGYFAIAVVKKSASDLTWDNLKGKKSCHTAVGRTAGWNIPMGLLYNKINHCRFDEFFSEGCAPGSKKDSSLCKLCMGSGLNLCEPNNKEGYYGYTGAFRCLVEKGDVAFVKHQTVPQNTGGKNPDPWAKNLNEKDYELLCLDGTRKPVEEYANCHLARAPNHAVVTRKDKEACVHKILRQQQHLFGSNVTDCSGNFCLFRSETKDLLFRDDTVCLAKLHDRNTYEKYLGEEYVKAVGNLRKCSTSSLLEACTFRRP

Apotransferrin: iron-free human transferrin
Mean mycelial dry wt after 96 h [1]: 0.02^1 mg

[Cl][Fe]([Cl])[Cl] [FeCl3]
Mean mycelial dry wt after 96 h [1]: 0.80^1 mg
dry weight, parental [2, 7]: 7.8^1 mg
Growth (mg dry weight) mean ± S.D., wild type [2, 8]: 6.5 ± 0.4 mg dry weight
dry weight, parental [2, 9]: 44.3^1 mg
dry weight, ΔsidA [3, 7]: 7.1^1 mg
Growth (mg dry weight) mean ± S.D., ΔsidA [3, 8]: 1.4 ± 1.1 mg dry weight
dry weight, ΔsidA [3, 9]: 47.4^1 mg
Growth (mg dry weight) mean ± S.D., ΔsidAR [4, 8]: 7.5 ± 0.3 mg dry weight

CC(=O)N(O)CCCC1NC(=O)CNC(=O)CNC(=O)CNC(=O)C(CCCN(O)C(C)=O)NC(=O)C(CCCN(O)C(C)=O)NC1=O (stereo not drawn) [desferriferrichrome] (cyclo(GGG[ξOrn(N(OH)Ac)][ξOrn(N(OH)Ac)][ξOrn(N(OH)Ac)]))
Concentration at which complete absence of holotransferrin was observed [5]: 5 mM

CC(=O)N([O-])CCC[C@@H]1NC(=O)CNC(=O)[C@H](CO)NC(=O)CNC(=O)[C@H](CCCN([O-])C(C)=O)NC(=O)[C@H](CCCN([O-])C(C)=O)NC1=O.[Fe+3] [ferricrocin] (cyclo(GSG[Orn(N5-OH,N5-Ac)][Orn(N5-OH,N5-Ac)][Orn(N5-OH,N5-Ac)]))
Affinity of iron removal from holotransferrin [5]: comparable to that of ferrichrome
dry weight, parental [2, 10]: 11.1^1 mg
dry weight, ΔsidA [3, 10]: 11.0^1 mg

C[C@@H]1[C@H](O)[C@@H](C)/C=C/C=C/CC/C=C/C=C/C=C/C=C/C(O[C@H]2O[C@H](C)[C@@H](O)[C@H](N)[C@@H]2O)CC2O[C@](O)(CC(O)C(O)CCC(O)CC(O)CC(O)CC(=O)O[C@H]1C)CC(O)C2C(=O)O (stereo partly drawn) [nystatin]
A440 (ferrated siderophores) ([6]; nystatin 0.5 μg/ml, 100000 spores/ml): 0.341 and 0.414 and 0.359
A440 (ferrated siderophores) ([6]; nystatin 0.5 μg/ml, 1000000 spores/ml): 0.416 and 0.382 and 0.232
A440 (ferrated siderophores) ([6]; nystatin 1 μg/ml, 100000 spores/ml): 0.340 and 0.31 and 0.325
A440 (ferrated siderophores) ([6]; nystatin 1 μg/ml, 1000000 spores/ml): 0.412 and 0.492 and 0.329
A440 (ferrated siderophores) ([6]; nystatin 5 μg/ml, 100000 spores/ml): 0.048 and 0.042 and 0.044
A440 (ferrated siderophores) ([6]; nystatin 5 μg/ml, 1000000 spores/ml): 0.042 and 0.043
A440 (ferrated siderophores) ([6]; nystatin 10 μg/ml, 100000 spores/ml): 0.043 and 0.045 and 0.042
A440 (ferrated siderophores) ([6]; nystatin 10 μg/ml, 1000000 spores/ml): 0.042 and 0.043 and 0.050
A440 (ferrated siderophores) ([6]; nystatin 50 μg/ml, 100000 spores/ml): 0.048 and 0.052 and 0.051
A440 (ferrated siderophores) ([6]; nystatin 50 μg/ml, 1000000 spores/ml): 0.048 and 0.051

CC(=O)NC1CCCN(O)C(=O)C=C(C)CCOC(=O)C(NC(C)=O)CCCN(O)C(=O)C=C(C)CCOC(=O)C(NC(C)=O)CCCN(O)C(=O)C=C(C)CCOC1=O (stereo not drawn) [desferri-TAF, Desferritriacetylfusarinine C]
Concentration able to remove some iron from holotransferrin [5]: 500 µM
Concentration at which complete absence of holotransferrin was observed [5]: 5 mM
Growth (mg dry weight) mean ± S.D., wild type [2, 11]: 10.1 ± 0.4 mg dry weight
Restoration of growth of ΔsidA in the presence of human serum [3]: restored to wild-type levels
Growth (mg dry weight) mean ± S.D., ΔsidA [3, 11]: 12.3 ± 1.2 mg dry weight
Growth (mg dry weight) mean ± S.D., ΔsidAR [4, 11]: 11.3 ± 0.3 mg dry weight

CC(=O)N(O)CCC[C@@H]1NC(=O)CNC(=O)[C@H](CO)NC(=O)CNC(=O)[C@H](CCCN(O)C(C)=O)NC(=O)[C@H](CCCN(O)C(C)=O)NC1=O [desferriferricrocin] (cyclo(GSG[Orn(N5-OH,N5-Ac)][Orn(N5-OH,N5-Ac)][Orn(N5-OH,N5-Ac)]))
Concentration able to remove some iron from holotransferrin [5]: 500 µM
Concentration at which complete absence of holotransferrin was observed [5]: 5 mM
Growth (mg dry weight) mean ± S.D., wild type [2, 11]: 9.7 ± 2.00 mg dry weight
Restoration of growth of ΔsidA in the presence of human serum [3]: restored to wild-type levels
Growth (mg dry weight) mean ± S.D., ΔsidA [3, 11]: 11.1 ± 1.1 mg dry weight
Growth (mg dry weight) mean ± S.D., ΔsidAR [4, 11]: 11.0 ± 1.2 mg dry weight

CC(=O)NC1CCCN(O)C(=O)/C=C(/C)CCOC(=O)C(NC(C)=O)CCCN(O)C(=O)/C=C(/C)CCOC(=O)C(NC(C)=O)CCCN(O)C(=O)/C=C(/C)CCOC1=O (stereo not drawn) [TAF, N′,N″,N′″-triacetylfusarinine C]
Affinity of iron removal from holotransferrin [5]: comparable to that of ferrichrome
dry weight, parental [2, 10]: 9.7^1 mg
Growth (mg dry weight) mean ± S.D., wild type [2, 8]: 6.2 ± 0.5 mg dry weight
dry weight, parental [2, 9]: 41^1 mg
dry weight, ΔsidA [3, 10]: 7.2^1 mg
Growth (mg dry weight) mean ± S.D., ΔsidA [3, 8]: 4.4 ± 1.5 mg dry weight
dry weight, ΔsidA [3, 9]: 46^1 mg
Growth (mg dry weight) mean ± S.D., ΔsidAR [4, 8]: 6.0 ± 0.1 mg dry weight
Stability in human serum: stable in human serum

Holotransferrin: purified human iron-saturated transferrin
Mean mycelial dry wt after 96 h [1]: 1.30^1 mg
